Results as given in US12409176B2, “Methods of treating acute depression” (INTRA-CELLULAR THERAPIES, INC., priority 2018, dated 2025).

Assays:
[1] = target: serotonin transporter (SERT) (Homo sapiens, UniProt P31645); test: Comparative serotonin transporter (SERT) inhibition among antipsychotic agents (FIG. 3); assay type: biochemical; settings: FIG. 3, compared among antipsychotic drugs
[2] = Antidepressant-like behaviors in rodents; assay type: in vivo
[3] = test system: hippocampal cytokine mRNA (IL-1β, IL-6, TNFα, CCL2, IL-4, IL-10); test: LPS-induced stress: hippocampal cytokine mRNA by qPCR (FIG. 9, 10); assay type: in vivo, mice
Description: Male, C57/B16 mice (n=6-12/group) are divided into five groups-control (vehicle/saline), vehicle/LPS, and […] at three different doses of ITI-007. Mice are first injected i.p. with either vehicle (5% DMSO, 5% Tween, 15% PEG, 75% water) or ITI-007 at 0.3 mg/kg, 3.0 mg/kg or 8.0 mg/kg. The mice are then immediately injected s.c. with either 0.9% saline or with 500 μg/kg lipopolysaccharide (LPS) diluted in 0.9% saline. After two hours, the animals are sacrificed, and hippocampal slices are obtained and analyzed for cytokine mRNA using qPCR. The results are shown in FIG. 9, normalized to the control group using the delta ct method. […] The results are shown in FIG. 10, normalized to the control group.

[4] = Symptoms of depression in patients with schizophrenia; assay type: in vivo, human
[5] = test system: mTORC1 signaling pathway (AKT Thr308, mTOR Ser2448, P70s6 kinase Thr389); test: mTOR signaling pathway phosphoprotein levels in prefrontal cortex (FIG. 7, 8); assay type: in vivo, rat; settings: for mTOR phosphorylation (Serine 2448) / p70s6K phosphorylation (Threonine 389) / phosphorylation of AKT at thr308: rat PFC; for mTOR phosphorylation (Serine 2448) / p70s6K phosphorylation (Threonine 389): lumateperone 3 mg/kg or ketamine 30 mg/kg i.p.; for mTOR phosphorylation (Serine 2448) / phosphorylation of AKT at thr308: 1 hour and 24 hours; for p70s6K phosphorylation (Threonine 389): over the 24 hour period; for phosphorylation of AKT at thr308: one i.p. injection, lumateperone 3 mg/kg or ketamine 30 mg/kg, vs saline
Description: It is known that upstream and downstream effectors of the mTOR (e.g., mTORC1) signaling pathway are increased in the mPFC of rats 1 hour and 24 hours after administration of the rapid-acting antidepressant ketamine.
Pre-frontal cortical phosphorylation levels of AKT (at Threonine 308), mTOR (at Serine 2448) or P70s6 kinase (at Threonine 389) are evaluated after normalization to total protein levels for each target, at both 1 hour and 24 hours. Results are shown as the percent relative change compared to placebo (saline).

[6] = test system: mTORC1 signaling pathway (AKT Thr308, mTOR Ser2448, P70s6 kinase Thr389); test: as above; assay type: in vivo, rat; settings: adult rats; lumateperone 1 to 8 mg/kg i.p., ketamine 30 mg/kg; 60 min, 90 min or 24 hours
[7] = Clinical studies in acute exacerbated schizophrenia: emotional experience symptoms; settings: 60 mg P.O. once daily, up to 28 days; patients with acute exacerbated schizophrenia; two clinical studies
[8] = test system: AMPA receptor currents in mPFC pyramidal neurons; test: AMPA currents in mPFC slices, whole-cell patch clamp (FIG. 5, 6); assay type: cell-based; settings: bath applied to rat mPFC slices, 3-100 nM, 5 min later
Source text: Combined administration of the antipsychotic, olanzapine, and the SSRI, fluoxetine, similarly induces rapid antidepressant activity in humans and animals (Tohen et al., 2010); likewise, combined application of olanzapine and fluoxetine is required to induce AMPA receptor currents in vitro.

[9] = test system: NMDA receptor currents in mPFC pyramidal neurons; test: NMDA currents in mPFC slices, whole-cell patch clamp (FIG. 4); assay type: cell-based, rat
[10] = Safety and tolerability in humans; assay type: in vivo
[11] = test system: hippocampal gene expression; test: NanoString Mouse Neuropathology panel, hippocampal mRNA after LPS; assay type: in vivo, mice; settings: Lumateperone/LPS compared to vehicle/LPS, 3 mg/kg i.p., 2 hours
Description: Immediately after this injection, the mice are injected with either LPS (500 μg/kg diluted in 0.9% saline) or with 0.9% saline. After 2 hours, the mice are sacrificed, and hippocampal mRNA is obtained, as described in Example 1. Hippocampal RNA concentration and integrity are evaluated using an Agilent 2100 Bioanalyzer. Sample preparation, hybridization and detection are carried out according to NanoString manufacturer's instructions (NanoString technologies, WA). RNA (100 ng) expression profiling is performed using the nCounter NanoString Mouse Neuropathology panel, and data are analyzed using the nSolver software to produce and compare direct counts of mRNA. […] The neuropathology panel was developed to include genes of relevance for research in models of neurodegenerative and neurological disorders, such as Alzheimer's disease, Parkinson's disease, Amyotrophic Lateral Sclerosis, Frontotemporal Dementia, and Huntington's disease. The panel includes 770 genes associated with themes of neurotransmission, neuron-glia interaction, neuroplasticity, cell structure integrity, neuroinflammation and metabolism

[12] = test system: serum cytokines (IL-1β, IL-6, TNF, IL-10, IFN-gamma); test: Restraint stress: serum cytokines by MSD multiplex (FIG. 2); assay type: in vivo, mice; settings: pre-treatment 3 mg/kg i.p., 2 h restraint stress
Description: (§1) Male, C57/B16 mice (n=6-7/group) are divided into three groups—control (vehicle alone, no stress), vehicle—stress (vehicle, i.p.), or ITI-007—stress (3 mg/kg, i.p. in vehicle). For induction of stress, mice are placed in a plastic “decapicones” and placed on the bottom of a warm, clean rodent cage for a 2 h period. These plastic “decapicones” produce an acute restraint stress which triggers neuroinflammation in both hippocampal tissue and peripherally (as shown by serum). At the end of the stress exposure, mice are killed; blood is taken for serum preparation and brain tissue for analysis. Serum is prepared from blood; cytokine measures are performed using MSD multiplex analysis. Brain tissue is analyzed by qPCR for pro-inflammatory cytokine mRNA expression.

[13] = test system: hippocampal pro- and anti-inflammatory cytokine expression; test: Restraint stress: hippocampal cytokine expression by qPCR (FIG. 1); assay type: in vivo, mice; settings: 3 mg/kg i.p., 2 h restraint stress, not statistically significant
Description: as §1

phosphor-mTOR = settings: single antidepressant-effective dose; prefrontal cortex and hippocampus of mice and rats; cited from earlier work
[14] = cited from earlier work
[15] = 0.3, 3.0 or 8.0 mg/kg i.p., co-injection with LPS 500 μg/kg s.c., 2 hours, FIG. 9

serotonin transporter (SERT), sequence (P31645 whole entry, species assumed): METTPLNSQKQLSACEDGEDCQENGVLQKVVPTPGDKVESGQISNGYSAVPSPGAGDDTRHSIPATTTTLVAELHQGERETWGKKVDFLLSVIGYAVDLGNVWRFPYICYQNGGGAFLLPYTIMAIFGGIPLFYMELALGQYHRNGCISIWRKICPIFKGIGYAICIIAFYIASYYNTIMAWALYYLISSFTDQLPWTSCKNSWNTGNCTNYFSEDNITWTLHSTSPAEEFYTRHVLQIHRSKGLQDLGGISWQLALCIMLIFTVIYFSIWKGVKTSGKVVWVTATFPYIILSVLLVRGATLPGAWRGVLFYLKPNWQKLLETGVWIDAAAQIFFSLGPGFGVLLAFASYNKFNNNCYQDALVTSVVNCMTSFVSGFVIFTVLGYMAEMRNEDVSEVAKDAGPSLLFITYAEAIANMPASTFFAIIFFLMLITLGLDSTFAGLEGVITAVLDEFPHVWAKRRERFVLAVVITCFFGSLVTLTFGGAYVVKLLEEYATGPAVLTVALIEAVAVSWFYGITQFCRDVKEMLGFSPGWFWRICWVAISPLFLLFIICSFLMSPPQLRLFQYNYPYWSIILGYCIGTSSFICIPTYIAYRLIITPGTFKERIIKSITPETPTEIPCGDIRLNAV

CN1CCN2c3c(cccc31)[C@@H]1CN(CCCC(O)c3ccc(F)cc3)CC[C@@H]12 (stereo partly drawn) [IC200131]
SERT inhibition [1]: high SERT inhibition | antidepressant-like behaviors [2]: elicit antidepressant-like behaviors

CN1CCN2c3c(cccc31)[C@@H]1CN(CCCC(=O)c3ccc(F)cc3)CC[C@@H]12 [Lumateperone, 4-((6bR,10aS)-3-methyl-2,3,6b,9,10,10a-hexahydro-1H-pyrido[3′,4′:4,5]pyrrolo[1,2,3-de]quinoxalin-8(7H)-yl)-1-(4-fluorophenyl)-1-butanone]
hippocampal inflammatory cytokine production, delayed dosing ([3]; 3.0 mg/kg, given 30 minutes after LPS, FIG. 10): suppresses inflammatory cytokine production | hippocampal anti-inflammatory cytokine mRNA (IL-4, IL-10) [3, 15]: significantly enhanced | hippocampal pro-inflammatory cytokine mRNA (IL-1β, IL-6, TNFα, CCL2) [3, 15]: significantly attenuated | SERT inhibition [1]: very high SERT inhibition | symptoms of depression [4]: improves symptoms of depression | antidepressant-like behaviors [2]: elicit antidepressant-like behaviors | duration of effect on phospho-protein levels at 24 hours ([5]; compared with ketamine 30 mg/kg): longer lasting effect compared with ketamine | AKT thr308 phosphorylation effect at 24 hours versus ketamine ([5]; lumateperone 3 mg/kg vs ketamine 30 mg/kg i.p., not declining in intensity (FIG. 8)): stronger at 24 hours than for ketamine | mTOR phosphorylation (Serine 2448) [5]: Neither ketamine nor lumateperone results in a change | p70s6K phosphorylation (Threonine 389) [5]: progressively increases | phosphorylation of AKT at thr308 [5]: increase phosphorylation | activation of the mTORC1 signaling pathway in mPFC (p-Akt thr308, p-P70S6K) [6]: rapidly activates | symptoms of emotional experience compared to placebo [7]: significant and unexpected improvement | AMPA currents [8]: enhanced | NMDA currents ([9]; bath applied to rat mPFC slices, 3-100 nM, 5 min later): enhanced | effect on NMDA and AMPA currents in the presence of the D1 receptor antagonist SCH-23390 ([9]; lumateperone 30 nM, SCH-23390 1 μM): fully blocked | safety and tolerability [10]: safe and well-tolerated | Linear Change, down-regulated genes: Ctns, Jun, Polr2l, Usp21, Csf1, Sirt1, Atf4, Fclrls [11]: 0.80-0.85 fold | Linear Change, down-regulated genes: Hc, Osmr [11]: <0.500-fold | Linear Change, down-regulated genes: Nfe2l2, Naglu, Pla2g4b, Npas4, Nos3 [11]: 0.75-0.80-fold | Linear Change, down-regulated genes: Ptgs2, Cp, Cntf, Tnfrsf1a, Il1R1 [11]: 0.5-0.75-fold | Linear Change, up-regulated gene: Cldn5 [11]: >1.5 fold | Linear Change, up-regulated genes: Egr1, Gata2, Olig2 [11]: 1.25-1.5 fold | Linear Change, up-regulated genes: Phf21a, Islr2, Ngf, Arrb2, Homer1, Notch1, Rapgef2, Pde4d [11]: 1.1-1.25 fold | Linear Change, up-regulated genes: Syt4, Adcy9, Gabrb2, Slc8a1, Inppf5, Scn1a, Pten, Crebbp [11]: 1.0-1.1 fold | stress effects on serum IL-1ρ and IL-6 [12]: significantly attenuates | stress effects on serum TNF and IL-10 [12]: trends, but not statistically significant | hippocampal CCL2 and IL-10 levels [13]: elevated | hippocampal expression of pro-inflammatory cytokines by qPCR [13]: generally depressed

CNC1(c2ccccc2Cl)CCCCC1=O (stereo not drawn) [ketamine, reference compound]
onset of induction of phosphor-mTOR after administration (phosphor-mTOR): ≤ 30 min | mTOR phosphorylation (Serine 2448) [5]: Neither ketamine nor lumateperone results in a change | p70s6K phosphorylation (Threonine 389) [5]: transiently increase | phosphorylation of AKT at thr308 [5]: increase phosphorylation | ratings on the Hamilton Depression Rating Scale (HDRS) compared to placebo ([14]; 40-minute infusion, total dose 0.5 mg/kg, after 24 hours, Berman et al.): significantly improved ratings | onset of effects after intravenous infusion ([14]; intravenous infusion): ~4 h | persistence of effects ([14]; intravenous infusion): up to 2 weeks | activation of the mTORC1 signaling pathway in mPFC (p-Akt thr308, p-P70S6K) [6]: rapidly activates
